# Earlier results in patent US7741370B2, “Double salts of (−)-hydroxycitric acid and a process for preparing the same” (Laila Impex, priority 2004, dated 2010).
# Tests used:
# [1] = free acid form, forming a lactone; liquid form unstable during storage
# [2] = prior-art salt (US 5,783,603), statement in words
stability [1],hygroscopicity [2],Molecule
unstable,–,"O=C(O)CC(O)(C(=O)O)C(O)C(=O)O (single isomer, unassigned; (-)) [(−)-hydroxycitric acid]"
–,hygroscopic,potassium salt of HCA
